Experimental data as given in PMC6856977 (Molecular Pain, 2018).

How the values were obtained:
hTRPA1 [1] = target: hTRPA1 (Homo sapiens, UniProt O75762, C621S/C641S/C665S); assay: whole-cell patch clamp, evoked inward current; format: cell-based
mTRPA1 = mTRPA1 (Mus musculus, UniProt Q8BLA8); assay: whole-cell patch clamp, evoked inward current
hTRPA1 [2] = target: hTRPA1 (Homo sapiens, UniProt O75762); assay: whole-cell patch clamp, evoked inward current; format: cell-based
rTRPV1 [3] = target: T1, rTRPV1 (Rattus norvegicus, UniProt O35433); assay: whole-cell patch clamp, block of capsaicin-evoked current; format: cell-based; conditions: channel block; capsaicin 100 nM; HEK293t, -60 mV, room temperature, pH 7.4
rTRPV1 [4] = target: T1, rTRPV1; assay: whole-cell patch clamp, evoked inward current; format: cell-based; conditions: agonist; 10% PG (1366 mM); HEK293t, -60 mV, room temperature, pH 7.4

T1 sequence (O35433 whole entry): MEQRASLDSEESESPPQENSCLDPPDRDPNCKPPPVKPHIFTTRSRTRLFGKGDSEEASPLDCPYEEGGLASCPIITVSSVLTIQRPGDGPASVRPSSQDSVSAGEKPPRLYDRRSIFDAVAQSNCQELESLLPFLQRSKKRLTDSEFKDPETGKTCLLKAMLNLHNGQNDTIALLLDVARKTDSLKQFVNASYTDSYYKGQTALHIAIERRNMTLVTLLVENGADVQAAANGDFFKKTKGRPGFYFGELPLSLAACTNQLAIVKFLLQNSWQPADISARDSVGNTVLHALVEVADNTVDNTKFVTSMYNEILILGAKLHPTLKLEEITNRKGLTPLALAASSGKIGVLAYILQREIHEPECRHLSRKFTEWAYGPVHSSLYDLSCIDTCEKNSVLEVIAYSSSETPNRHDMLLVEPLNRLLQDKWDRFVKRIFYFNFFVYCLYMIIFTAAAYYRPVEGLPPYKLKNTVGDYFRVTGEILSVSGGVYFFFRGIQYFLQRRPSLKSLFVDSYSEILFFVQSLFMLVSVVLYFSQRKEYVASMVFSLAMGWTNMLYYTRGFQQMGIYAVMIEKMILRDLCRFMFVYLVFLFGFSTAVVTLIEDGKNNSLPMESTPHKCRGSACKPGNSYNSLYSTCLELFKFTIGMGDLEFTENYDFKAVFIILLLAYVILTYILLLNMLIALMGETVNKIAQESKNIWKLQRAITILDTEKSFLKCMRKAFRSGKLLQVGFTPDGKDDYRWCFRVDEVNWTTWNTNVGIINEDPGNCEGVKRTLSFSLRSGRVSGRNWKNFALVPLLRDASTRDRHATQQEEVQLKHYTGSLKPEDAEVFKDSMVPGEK
Sequence of mTRPA1 (Q8BLA8 whole entry): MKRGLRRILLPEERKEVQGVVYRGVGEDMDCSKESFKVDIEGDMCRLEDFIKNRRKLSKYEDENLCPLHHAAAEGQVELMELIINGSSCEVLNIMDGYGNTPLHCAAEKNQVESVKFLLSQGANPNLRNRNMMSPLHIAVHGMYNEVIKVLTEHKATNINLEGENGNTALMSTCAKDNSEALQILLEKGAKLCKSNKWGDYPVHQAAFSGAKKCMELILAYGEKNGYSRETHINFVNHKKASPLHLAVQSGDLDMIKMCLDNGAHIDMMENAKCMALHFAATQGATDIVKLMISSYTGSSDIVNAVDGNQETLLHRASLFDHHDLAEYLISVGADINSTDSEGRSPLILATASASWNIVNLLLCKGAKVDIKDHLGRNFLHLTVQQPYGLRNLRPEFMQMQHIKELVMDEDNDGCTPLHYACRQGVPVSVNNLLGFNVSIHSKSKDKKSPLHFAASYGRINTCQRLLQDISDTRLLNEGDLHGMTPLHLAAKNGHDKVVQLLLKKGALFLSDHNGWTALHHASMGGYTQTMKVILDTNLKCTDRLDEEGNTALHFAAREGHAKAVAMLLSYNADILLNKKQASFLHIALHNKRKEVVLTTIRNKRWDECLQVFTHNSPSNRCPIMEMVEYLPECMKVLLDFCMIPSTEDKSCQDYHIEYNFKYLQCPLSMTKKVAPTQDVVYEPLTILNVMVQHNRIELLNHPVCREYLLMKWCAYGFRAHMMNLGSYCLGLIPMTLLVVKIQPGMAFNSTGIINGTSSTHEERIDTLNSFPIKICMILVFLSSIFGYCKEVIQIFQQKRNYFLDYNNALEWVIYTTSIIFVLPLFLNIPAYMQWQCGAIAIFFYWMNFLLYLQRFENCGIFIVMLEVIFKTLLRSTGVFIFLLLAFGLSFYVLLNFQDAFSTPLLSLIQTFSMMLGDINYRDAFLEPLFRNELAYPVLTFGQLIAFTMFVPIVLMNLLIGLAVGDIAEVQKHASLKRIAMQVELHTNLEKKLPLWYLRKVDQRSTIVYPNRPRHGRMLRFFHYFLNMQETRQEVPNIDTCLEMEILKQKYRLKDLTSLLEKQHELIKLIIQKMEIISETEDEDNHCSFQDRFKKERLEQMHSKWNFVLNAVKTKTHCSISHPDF
Sequence of hTRPA1 (Homo sapiens, UniProt O75762) (O75762 whole entry): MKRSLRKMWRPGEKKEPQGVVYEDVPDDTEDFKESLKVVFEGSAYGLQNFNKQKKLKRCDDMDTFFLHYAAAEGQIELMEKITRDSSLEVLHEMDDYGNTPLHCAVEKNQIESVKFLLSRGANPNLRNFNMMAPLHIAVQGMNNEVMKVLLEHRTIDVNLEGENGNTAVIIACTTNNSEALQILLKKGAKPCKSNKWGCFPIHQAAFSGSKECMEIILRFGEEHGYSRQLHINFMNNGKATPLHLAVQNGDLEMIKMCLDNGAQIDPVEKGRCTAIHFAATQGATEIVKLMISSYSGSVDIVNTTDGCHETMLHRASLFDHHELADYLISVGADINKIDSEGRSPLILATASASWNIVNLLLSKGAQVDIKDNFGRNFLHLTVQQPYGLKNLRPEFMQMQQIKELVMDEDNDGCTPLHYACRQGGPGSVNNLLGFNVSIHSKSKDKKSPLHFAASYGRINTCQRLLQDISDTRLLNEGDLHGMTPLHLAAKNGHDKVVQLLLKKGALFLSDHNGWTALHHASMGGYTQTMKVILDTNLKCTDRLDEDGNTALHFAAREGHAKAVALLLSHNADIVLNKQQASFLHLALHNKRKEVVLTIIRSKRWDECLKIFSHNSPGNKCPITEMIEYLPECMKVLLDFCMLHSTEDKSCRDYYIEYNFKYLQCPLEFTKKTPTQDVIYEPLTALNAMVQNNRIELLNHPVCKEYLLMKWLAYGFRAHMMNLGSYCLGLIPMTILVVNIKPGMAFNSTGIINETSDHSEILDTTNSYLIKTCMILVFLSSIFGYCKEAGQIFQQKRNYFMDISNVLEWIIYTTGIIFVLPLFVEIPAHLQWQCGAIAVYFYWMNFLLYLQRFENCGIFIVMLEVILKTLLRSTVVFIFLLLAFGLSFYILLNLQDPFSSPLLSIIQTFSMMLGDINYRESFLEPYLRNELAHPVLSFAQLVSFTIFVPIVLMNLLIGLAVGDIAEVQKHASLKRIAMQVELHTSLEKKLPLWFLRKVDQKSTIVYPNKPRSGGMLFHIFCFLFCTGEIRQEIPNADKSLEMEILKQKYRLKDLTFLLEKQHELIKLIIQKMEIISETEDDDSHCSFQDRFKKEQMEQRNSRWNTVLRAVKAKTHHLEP
Sequence of hTRPA1 (Homo sapiens, UniProt O75762, C621S/C641S/C665S) (O75762 whole entry C621S/C641S/C665S): as the sequence (O75762 whole entry) above, with C621S, C641S, C665S counted along it

Compound | EC50 (hTRPA1 [1]) [mM] | EC50 (mTRPA1) [µM] | EC50 (hTRPA1 [2]) [µM] | % current reduction at 100 μM (rTRPV1 [3]) | current density at 10% PG (rTRPV1 [4]) [pA/pF]
CCOC(=O)c1cncn1[C@H](C)c1ccccc1 [etomidate] | ~1.39 | 375 | 73 | 32 (95% CI: 20.2–43.8) | –
CC(O)CO (centres unmarked) [propylene glycol] | – | – | – | – | 215 ± 26
